According to PMC4393269, “Carvacrol Codrugs: A New Approach in the Antimicrobial Plan” (PLoS ONE, 2015):
Converted amounts (≈) assume the structure as drawn. Counter-ions that a name gives are not always drawn.

Key:
E. coli ATCC 8739 = assay: Broth microdilution MIC/MBC on planktonic cells; type: cell-based; details: Escherichia coli, ATCC8739; for MIC: E. coli ATCC 8739, 24 h at 37°C, read-out: MIC; for MBC: E. coli ATCC 8739, read-out: MBC
Procedure: (§1) Two Gram-positive (S. aureus ATCC 29213 and S. epidermidis ATCC 35984) and two Gram-negative (E. coli ATCC 8739 and P. aeruginosa ATCC 9027) strains, and one fungal strain (C. albicans ATCC 10231) were used for the detection of antibacterial activity of carvacrol, NAC, Ac-Cys(Allyl)-OH, and carvacrol codrugs 1–10. All tested compounds were dissolved in 20% DMSO to prepare the stock solution (100 mg/mL). The final concentration of DMSO in each well appeared to be not toxic for all studied microorganisms, as confirmed by the solvent control test included in the study.
(§2) The effects of carvacrol codrugs 1–10 and reference compounds on planktonic cells were evaluated by Minimum Inhibitory Concentration (MIC) and Minimum Bactericidal Concentration (MBC) determination using the broth microdilution method according to EUCAST guidelines. Bacterial suspensions, grown in Mueller–Hinton Broth (MHB) at logarithmic phase, were incubated on microtiter plates at a concentration of 5 x 10^5 CFU/mL, with several dilutions (0.07–40 mg/mL) for 24 h at 37°C. The MIC was defined as the lowest concentration of substances giving a complete inhibition of visible growth in comparison with a control well, and the MBC was determined as the lowest concentration at which no bacterial growth occurred on Mueller–Hinton Agar plates.
(§3) Data were obtained from at least three independent experiments performed in duplicate. The susceptibility of the bacterial strains against ciprofloxacin was used as an internal standard during MIC determinations.

P. aeruginosa ATCC 9027 = assay: Broth microdilution MIC/MBC on planktonic cells; type: cell-based; details: Pseudomonas aeruginosa, ATCC9027; for MIC: P. aeruginosa ATCC 9027, 24 h at 37°C, read-out: MIC; for MBC: P. aeruginosa ATCC 9027, read-out: MBC
Procedure: as §1, §2, §3

S. aureus ATCC 29213 = assay: Broth microdilution MIC/MBC on planktonic cells; type: cell-based; details: Staphylococcus aureus, ATCC29213; for MIC: S. aureus ATCC 29213, 24 h at 37°C, read-out: MIC; for MBC: S. aureus ATCC 29213, read-out: MBC
Procedure: as §1, §2, §3

[1] = system: S. epidermidis ATCC 35984; assay: Broth microdilution MIC/MBC on planktonic cells; type: cell-based; details: Staphylococcus epidermidis, ATCC35984; for MIC: S. epidermidis ATCC 35984, 24 h at 37°C, read-out: MIC; for MBC: S. epidermidis ATCC 35984, read-out: MBC
Procedure: as §1, §2, §3

C. albicans ATCC 10231 = assay: Broth microdilution MIC/MFC; type: cell-based; details: Candida albicans, ATCC10231; for MIC: C. albicans ATCC 10231, 24–48 h at 37°C, read-out: MIC; for MFC: C. albicans ATCC 10231, read-out: MFC
Procedure: as §1
The MIC detection of C. albicans ATCC 10231 was performed using the broth microdilution method according to EUCAST guidelines in RPMI 1640 plus 2% glucose with a final inoculum of 1–5 x 10^5 CFU/mL for 24–48 h at 37°C. The Minimum Fungicidal Concentration (MFC) was determined as the lowest concentration of substances at which no fungal growth occurred on Sabouraud agar plates.
as §3

[2] = system: human red blood cells (h-RBC); assay: Hemolytic activity; type: cell-based; details: 4% h-RBC, 1 h at 37°C; for hemolytic activity, maximum at the tested concentrations: 25 to 0.05 mg/mL
Procedure: (§4) Experimental protocols to study hemolysis on human red cells were approved by Ethics Committee of the University “G. d’Annunzio” Chieti-Pescara. Human red cells were from two volunteers, who signed the informed consent for this study.
(§5) Hemolytic activity of carvacrol codrugs 1–10 was tested against human red blood cells (h-RBC). Fresh human blood, collected with EDTA, was centrifuged at 3000 rpm for 5 min then washed three times with PBS pH 7.3. Red blood cells were diluted to 4% in PBS and incubated with different codrugs concentrations ranging from 25 to 0.05 mg/mL. After 1 h of incubation at 37°C, the suspensions were sedimented by centrifugation and the release of hemoglobin was determined by absorbance measurement at 405 nm and compared with a 0% hemolysis control (PBS) and a 100% hemolysis control (PBS with 1% v/v Triton X-100). The percentage of hemolysis was calculated using the following equation: Hemolysis (%) = [(OD405sample - OD4050% lysis control)/(OD405100% lysis control - OD4050% lysis contro)] X 100

Hemolytic activity = type: cell-based, human; details: human, human red blood cells (h-RBC), 4% suspension, pH 7.3; 4% h-RBC in PBS, 1 h at 37°C, at the compound's MIC values
Procedure: as §4, §5

MIC (E. coli ATCC 8739) [µg/mL] | MIC (P. aeruginosa ATCC 9027) [µg/mL] | MIC (S. aureus ATCC 29213) [µg/mL] | MIC [1] [µg/mL] | MIC (C. albicans ATCC 10231) [µg/mL] | SMILES | MBC (E. coli ATCC 8739) [µg/mL] | MBC (P. aeruginosa ATCC 9027) [µg/mL] | MBC (S. aureus ATCC 29213) [µg/mL] | MBC [1] [µg/mL] | MFC (C. albicans ATCC 10231) [µg/mL] | concentration at which hemolytic activity is over 50% [2] | hemolytic activity, maximum at the tested concentrations [2] [%] | hemolysis at 1 h (Hemolytic activity) [%]
10000 (≈ 30.9 mM) | 5000 (≈ 15.5 mM) | 10000 (≈ 30.9 mM) | 10000 (≈ 30.9 mM) | 5000 (≈ 15.5 mM) | CSCC[C@H](NC(C)=O)C(=O)Oc1cc(C(C)C)ccc1C [codrug 5, N-Ac-Met-CAR] | 10000 (≈ 30.9 mM) | 10000 (≈ 30.9 mM) | 10000 (≈ 30.9 mM) | 10000 (≈ 30.9 mM) | 5000 (≈ 15.5 mM) | over 20 mg/mL | – | –
5000 (≈ 14.8 mM) | 5000 (≈ 14.8 mM) | 10000 (≈ 29.5 mM) | 10000 (≈ 29.5 mM) | 2500 (≈ 7.38 mM) | Cc1ccc(C(C)C)cc1OC(=O)CCCC[C@@H]1CCSS1 [codrug 7, LA-CAR] | 10000 (≈ 29.5 mM) | 10000 (≈ 29.5 mM) | 10000 (≈ 29.5 mM) | 10000 (≈ 29.5 mM) | 5000 (≈ 14.8 mM) | – | ≤ 12 | –
5000 | 10000 | 5000 | 2500 | 600 | Cc1ccc(C(C)C)cc1OC(=O)[C@@H]1CSCN1 [codrug 8, TFA·TCA-CAR] | 5000 | 10000 | 10000 | 5000 | 600 | 3000 µg/mL | – | > 50
10000 (≈ 30 mM) | 10000 (≈ 30 mM) | 10000 (≈ 30 mM) | 5000 (≈ 15 mM) | 1250 (≈ 3.75 mM) | C#CCSC[C@H](NC(C)=O)C(=O)Oc1cc(C(C)C)ccc1C [codrug 9, N-Ac-Cys(Propargyl)-CAR] | 10000 (≈ 30 mM) | 10000 (≈ 30 mM) | 10000 (≈ 30 mM) | 10000 (≈ 30 mM) | 2500 (≈ 7.5 mM) | 10000 µg/mL | – | > 50
10000 (≈ 35.8 mM) | 10000 (≈ 35.8 mM) | 10000 (≈ 35.8 mM) | 10000 (≈ 35.8 mM) | 2500 (≈ 8.95 mM) | Cc1ccc(C(C)C)cc1OC(=O)[C@@H]1CSC(=O)N1 [codrug 10, OTC-CAR] | 10000 (≈ 35.8 mM) | 10000 (≈ 35.8 mM) | 10000 (≈ 35.8 mM) | 10000 (≈ 35.8 mM) | 2500 (≈ 8.95 mM) | – | ≤ 12 | –

SMILES | MIC (E. coli ATCC 8739) [µg/mL] | MIC (P. aeruginosa ATCC 9027) [µg/mL] | MIC (S. aureus ATCC 29213) [µg/mL] | MIC [1] [µg/mL] | MIC (C. albicans ATCC 10231) [µg/mL] | MBC (E. coli ATCC 8739) [µg/mL] | MBC (P. aeruginosa ATCC 9027) [µg/mL] | MBC (S. aureus ATCC 29213) [µg/mL] | MBC [1] [µg/mL] | MFC (C. albicans ATCC 10231) [µg/mL] | concentration at which hemolytic activity is over 50% [2] | hemolytic activity, maximum at the tested concentrations [2] [%] | hemolysis at 1 h (Hemolytic activity) [%]
C[Se]CC[C@H](NC(C)=O)C(=O)Oc1cc(C(C)C)ccc1C [codrug 6, N-Ac-Met(Se)-CAR] | 5000 (≈ 13.5 mM) | 5000 (≈ 13.5 mM) | 10000 (≈ 27 mM) | 5000 (≈ 13.5 mM) | 150 (≈ 0.405 mM) | 10000 (≈ 27 mM) | 10000 (≈ 27 mM) | 10000 (≈ 27 mM) | 10000 (≈ 27 mM) | 600 (≈ 1.62 mM) | over 20 mg/mL | – | –
